Patent US20170368055A1, “METHODS FOR TREATING INFECTIONS” (Melinta Therapeutics, Inc., priority 2014, published 2017)
Structures can show the parent of a compound that is named as a salt.

Legend:
[1] = Clinical trial of oral and intravenous-then-oral delafloxacin regimens: adverse event reporting, incidence of diarrhea; type: in vivo, human; conditions: for Abdominal Pain, subjects reporting, number (%) / Diarrhea, subjects reporting, number (%) / Gastrointestinal disorders, subjects reporting, number (%) / Nausea, subjects reporting, number (%): n = 20, safety population; for Percentage of subjects who reported diarrhea: oral capsules
[2] = Phase 1 single-dose crossover study: treatment-emergent adverse events; type: in vivo, human
Protocol: The pharmacokinetics and relative bioavailabilities of a 300 mg delafloxacin intravenous dosage form according to Example 1 and a 450 mg dose of oral delafloxacin according to Example 4 were measured in a Phase 1, single-dose, open-label, randomized, 2-period, 2-sequence crossover study. 56 healthy subjects received a single 450-mg dose of oral delafloxacin and a single 300-mg delafloxacin IV infusion in 1 of 2 treatment sequences. Plasma samples were analyzed for delafloxacin concentrations with a validated LC-MS/MS method. Pharmacokinetic parameters were calculated using noncompartmental methods.
16 treatment-emergent AEs (TEAE) were reported, the most frequent of which were headache (5.4%), followed by diarrhea (3.6%). 2 TEAEs were considered moderate in severity, but the remainders were considered mild, and none led to study discontinuation.

[3] = Regimen C: 300 mg IV then 400 mg oral capsules
[4] = Regimens A/B: 400-mg oral capsules (4 × 100-mg)
[5] = 56 healthy subjects, single 450-mg oral dose and single 300-mg IV infusion

SMILES | Abdominal Pain, subjects reporting, number (%) [1, 3] | Diarrhea, subjects reporting, number (%) [1, 3] | Gastrointestinal disorders, subjects reporting, number (%) [1, 3] | Nausea, subjects reporting, number (%) [1, 3] | Abdominal Pain, subjects reporting, number (%) [1, 4] | Diarrhea, subjects reporting, number (%) [1, 4] | Gastrointestinal disorders, subjects reporting, number (%) [1, 4] | Nausea, subjects reporting, number (%) [1, 4] | Side effects reported ([1]; group with intravenous administration followed by oral treatment) | Tolerability ([1]; intravenous formulation (300 mg, 3 days) followed by oral formulation (400 mg BID, 4 days)) | Side effects as compared to all-oral formulations ([1]; intravenous formulation followed by oral formulation) | Percentage of subjects who reported diarrhea [1] | Diarrhea TEAE frequency [2, 5] | Headache TEAE frequency [2, 5] | Number of treatment-emergent AEs (TEAE) reported [2, 5] | TEAEs that led to study discontinuation ([2]; in vivo) | Number of TEAEs considered moderate in severity ([2]; remainders considered mild)
CNC[C@H](O)[C@@H](O)[C@H](O)[C@H](O)CO.Nc1nc(-n2cc(C(=O)O)c(=O)c3cc(F)c(N4CC(O)C4)c(Cl)c32)c(F)cc1F [Meglumine Salt, D-glucitol, 1-deoxy-1-(methylamino)-, 1-(6-amino-3,5-difluoro-2-pyridinyl)-8-chloro-6-fluoro-1,4-dihydro-7-(3-hydroxy-1-azetidinyl)-4-oxo-3-quinolinecarboxylate] | 0 | 0 | 0 | 0 | 0 | 3 (15.0%) | 5 (25.0%) | 0 | No side effect | well tolerated | reduced side effects | 15.0% | – | – | – | – | –
Nc1nc(-n2cc(C(=O)O)c(=O)c3cc(F)c(N4CC(O)C4)c(Cl)c32)c(F)cc1F [Potassium Salt] | – | – | – | – | 2 (10.0%) | 3 (15.0%) | 3 (15.0%) | 1 (5.0%) | – | – | – | 15.0% | – | – | – | – | –
Nc1nc(-n2cc(C(=O)O)c(=O)c3cc(F)c(N4CC(O)C4)c(Cl)c32)c(F)cc1F [delafloxacin, 1-(6-amino-3,5-difluoro-2-pyridinyl)-8-chloro-6-fluoro-1,4-dihydro-7-(3-hydroxy-1-azetidinyl)-4-oxo-3-quinolinecarboxylic acid] | – | – | – | – | – | – | – | – | – | – | – | – | 3.6% | 5.4% | 16 | none | 2
